In patent publication EP1022028A1, “SUSTAINED-RELEASE ORAL PREPARATION” (Takeda Chemical Industries, Ltd., priority 1997, dated 1999):

Experiments:
[1] = acute oral toxicity (LD50) in rats; settings: rat, in vivo, rats (Wistar)
From the text: (§1) The sustained-release oral preparation of the present invention is low in toxic potential and can be administered safely to mammals (e.g. cat, bovine, dog, horse, goat, monkey, human) requiring the treatment or prophylaxis of diabetes or inhibition of postprandial hyperglycemia. Particularly, the valiolamine derivative for use in the present invention, for example [2-hydroxy-1-(hydroxymethyl)ethyl]valiolamine (voglibose), is very high in safety rating with the acute oral toxicity (LD50) values in mice (NRM1) and rats (Wistar) being 14.7 ∼ 21.5 grams/kilogram body weight (mice) and about 20 grams/kilogram body weight (rats), respectively.

[2] = acute oral toxicity (LD50) in mice; settings: mouse, in vivo, mice (NRM1)
From the text: as §1

Compound: OCC(CO)N[C@H]1C[C@](O)(CO)[C@@H](O)[C@H](O)[C@H]1O [voglibose, 1L(1S)-(1(OH)2,3,5/1,3)-5-[[2-hydroxy-1-(hydroxymethyl)ethyl]amino]-1-C-(hydroxymethyl)-1,2,3,4-cyclohexanetetrol]
- LD50 [1]: ~20000 mg/kg
- LD50 [2]: 14700 to 21500 mg/kg
